Where two headings read alike, the source gives them in different places.
Columns and labels:
TEAD2 [1] = molecular target: T1, TEAD2 (Homo sapiens (Human), UniProt Q15562); experiment: In vitro palmitoylation (TEAD2 autopalmitoylation, streptavidin blot); format: biochemical; settings: compound at 10 μM
Method in brief: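 Recombinant GST- or His6-TEAD2 (500 ng) preincubated 15 min with compound, then 30 min with 1 μM alkyne palmitoyl-CoA; click-labelled with biotin-azide (1 h, RT). Streptavidin-HRP blot band intensity quantified after SDS-PAGE; inhibition of autopalmitoylation relative to DMSO control.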

TEAD2 [2] = molecular target: T1, TEAD2; experiment: CMP assay (CPM fluorescence detection of free CoA); format: biochemical
Protocol: 7-Diethylamino-3-(4′-Maleimidylphenyl)-4-Methylcoumarin (CPM), which reacts with thiol of CoA liberated in the enzymatic reaction, and gives fluorescent signal (excitation ˜350-380, emission-460-480). The assay detects the product (free CoA) which is produced from palmitoyl-CoA as a method to detect the enzymatic activity. Test compounds that inhibit TEAD activity are therefore able to block the CMP fluorescent signal.
TEAD2/4 protein (10 μL of a 50 ng/μL solution) and a solution the test compound (0.5 μL, variable concentration) were pre-incubated for 30 min at r.t. A mixture prepared from MES pH 6.4 buffer (6.5 μL of a 50 mM solution), EDTA (1 μL of a 20 mM solution), palmitoyl-CoA (1 μL of a 20 μM solution), and 7-diethylamino-3-(4′-maleimidylphenyl)-4-methylcoumarin (1 μL of a 10 μM solution) was added and the resulting mixture was mixed well using a pipette. The solution was then incubated at r.t. for 30-120 min. in the dark, and fluorescence was detected at […] every 30 min. until the fluorescence signal is saturated. An IC50 for the ability of the compound to inhibit fluorescence is calculated from the results.

[3] = Table 3, unit inferred, read-out: TEAD2 palmitoylation IC50
[4] = Table 2, read-out: IC50 μM (CMP assay)

T1 sequence (Q15562 whole entry): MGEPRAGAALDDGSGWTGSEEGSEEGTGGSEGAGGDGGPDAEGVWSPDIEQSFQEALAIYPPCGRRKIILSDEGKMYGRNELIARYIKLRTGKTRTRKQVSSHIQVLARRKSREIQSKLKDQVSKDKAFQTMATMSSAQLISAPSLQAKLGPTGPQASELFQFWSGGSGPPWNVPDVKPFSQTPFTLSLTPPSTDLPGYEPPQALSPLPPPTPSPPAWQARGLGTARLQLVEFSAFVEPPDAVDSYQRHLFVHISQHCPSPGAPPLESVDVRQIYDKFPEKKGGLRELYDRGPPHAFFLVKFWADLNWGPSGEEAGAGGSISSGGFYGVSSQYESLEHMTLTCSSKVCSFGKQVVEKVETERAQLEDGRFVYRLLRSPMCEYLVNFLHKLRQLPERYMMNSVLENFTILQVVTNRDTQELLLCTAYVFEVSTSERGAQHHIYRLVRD

Which results are given for COc1ccc(Nc2ccc(N(C)c3ccc(C4CCCCC4)cc3)cc2)c(C(=O)O)c1 [CP-522]?
inhibition at 10 µM (TEAD2 [1]; Table 3): 96%; IC50 (TEAD2 [2]; [3]): 1.53 µM

With O=C(O)c1cccc(Nc2cc(Nc3ccc(C45CC6CC(CC(C6)C4)C5)cc3Cl)cc(C(F)(F)F)c2)n1 [Compound 119] as the molecule, how does the inhibition at 10 µM (TEAD2 [1]; Table 2) read?
The inhibition at 10 µM was 100%.

What about the IC50 (TEAD2 [2]; [4]) of the same molecule?
The IC50 was 0.106 µM.

For CN(c1ccc(N(C)c2ncccc2C(=O)O)cc1)c1ccc(C23CC4CC(CC(C4)C2)C3)cc1Cl [Compound 109], which inhibition at 10 µM (TEAD2 [1]; Table 2) is on record?
Its inhibition at 10 µM is 100%.

What about the IC50 (TEAD2 [2]; [4]) of the same molecule?
Its IC50 is 0.346 µM.

With O=C(O)c1cccnc1Nc1ccc(Oc2ccc(C34CC5CC(CC(C5)C3)C4)cc2Cl)cc1 [Compound 252] as the molecule, how does the inhibition at 10 µM (TEAD2 [1]; Table 2) read?
Its inhibition at 10 µM is 100%.

And the IC50 (TEAD2 [2]; [4])?
The IC50 was 0.053 µM.

COc1ccc(Nc2ccc(N(C)c3ccc(OCC(F)(F)F)cc3)cc2)c(C(=O)O)c1 [CP-553] was tested. Which inhibition at 10 µM (TEAD2 [1]; Table 3) did it give?
The inhibition at 10 µM was 100%.

And the IC50 (TEAD2 [2]; [3])?
The IC50 was 0.59 µM.

Which inhibition at 10 µM (TEAD2 [1]; Table 2) does the source give for O=C(O)c1cccc(Nc2ccc(Nc3ccc(C45CC6CC(CC(C6)C4)C5)cc3Cl)cc2)n1 [Compound 90] here?
The inhibition at 10 µM was 98%.

What about the IC50 (TEAD2 [2]; [4]) of the same molecule?
The IC50 was 0.446 µM.

How did the inhibition at 10 µM (TEAD2 [1]; Table 3) turn out when COc1ccc(Nc2ccc(N(C)c3ccc(S(F)(F)(F)(F)F)cc3)cc2C)c(C(=O)O)c1 [CP-571] was run?
The inhibition at 10 µM was 94%.

And the IC50 (TEAD2 [2]; [3])?
The IC50 was 0.36 µM.

How did the inhibition at 10 µM (TEAD2 [1]; Table 3) turn out when COc1ccc(Nc2ccc(Oc3ccc(C45CC6CC(C)(CC(C)(C6)C4)C5)cc3Cl)cc2F)c(C(=O)O)c1 [CP-570] was run?
The inhibition at 10 µM was 73%.

And the IC50 (TEAD2 [2]; [3])?
Its IC50 is 0.65 µM.

How did the inhibition at 10 µM (TEAD2 [1]; Table 2) turn out when COc1ccc(Nc2ccc(N(C)c3ccc(C45CC6CC(CC(C6)C4)C5)cc3)cc2)c(C(=O)O)c1 [Compound 250] was run?
Its inhibition at 10 µM is 89%.

And the IC50 (TEAD2 [2]; [4])?
The IC50 was 0.274 µM.

— patent publication US12187722B2, “Small molecule inhibitors of TEAD transcription factors” (The General Hospital Corporation, priority 2019, dated 2025)
